Patent publication US9944607B2, “Thiohydantoin derivatives and uses thereof” (Whitehead Institute for Biomedical Research, priority 2012, dated 2018)
Values after ≈ are worked out from the molar mass of the structure shown. Read-outs that look alike come from different tables or passages of the source.

Key:
[1] = tested on: NIH-3T3 mammalian fibroblasts; experiment: Counterscreen mammalian cell toxicity assay (Alamar Blue); format: cell-based, murine; details: n = 1, 48 hours, tested up to 26 μM
Method: Quiescent murine fibroblasts were subjected to incubation with compounds of interest for 48 hours. Subsequent cell viability was determined via measuring Alamar Blue fluorescence.
Procedures • After overnight culture, pin compounds into wells at 100 nL/well using the CyBio CyBi-Well pinning instrument. • Return the plates to the tissue culture incubator and incubate the culture for an additional 48 hours at 37° C. under 5% CO2. • At the completion of this incubation, add Alamar Blue solution diluted 1:40 in PBS to each well (10 μL/well) to achieve a final dilution of 1:200. • Incubate the plates for an additional 2-3 hours at 37° C. under 5% CO2. • Read the Relative Fluorescence Intensity (RFU) of wells on a standard plate reader as a measure of relative cell growth. […] 4.4.

physchem = details: for solubility at 24 h: phosphate buffered saline with 1% DMSO, pH 7.4, aqueous buffer, kinetic from dmso stock
Method: Solubility was determined in phosphate buffered saline (PBS) pH 7.4 with 1% DMSO. Each compound was prepared in duplicate at 100 μM in both 100% DMSO and PBS with 1% DMSO. Compounds were allowed to equilibrate at room temperature with a 250 rpm orbital shake for 24 hours. After equilibration, samples were analyzed by UPLC-MS (Waters, Milford, Mass.) with compounds detected by SIR detection on a single quadrupole mass spectrometer. The DMSO samples were used to create a two-point calibration curve to which the response in PBS was fit.

Candida albicans CaCi-2 = experiment: Primary assay: C. albicans CaCi-2 growth inhibition (Alamar Blue); format: cell-based; details: n = 3, 48 hours, tested up to 26 μM; for IC50: read-out: Growth Inhibition Activity, IC50 (μM), C. albicans (n = 3) CaCi-2
Candida albicans CaCi-17 = experiment: Primary assay: C. albicans CaCi-17 growth inhibition (Alamar Blue); format: cell-based; details: n = 3, 48 hours, tested up to 26 μM
[2] = read-out: Growth Inhibition Activity, IC50 (μM), 3T3 Fibroblasts (n = 1), Table 4
[3] = Table 4, PBS pH 7.4 with 1% DMSO, 24 hours, room temperature

## CCOC(=O)N1C(=O)C2(CCCCC2)N(c2ccc(OC)cc2)C1=S [compound 56604819]
[1]; Table 4
  Growth Inhibition Activity, IC50 (μM), 3T3 Fibroblasts (n = 1): Inactive
physchem; pH 7.4
  PBS Solubility: <1.0 µM
Candida albicans CaCi-2; Table 4
  IC50: 1.8 µM
Candida albicans CaCi-17; Table 4
  Growth Inhibition Activity, IC50 (μM), C. albicans (n = 3) CaCi-17: inactive

## CC(C)N1C(=S)NC(=O)C12CCCCC2 [compound 56604820]
[1]; Table 7
  Growth Inhibition Activity, IC50 (μM), 3T3 Fibroblasts (n = 1): Inactive
physchem
  solubility at 24 h: 32 µM (≈ 7.24 µg/mL)
Candida albicans CaCi-2; Table 7
  Growth Inhibition Activity, IC50 (μM), C. albicans (n = 3) CaCi-2: inactive
Candida albicans CaCi-17; Table 7
  Growth Inhibition Activity, IC50 (μM), C. albicans (n = 3) CaCi-17: inactive

## CCOC(=O)N1C(=O)N(c2ccc(C)cc2)C2(CCCCC2)C1=O [compound 56604827]
[1]; Table 6
  Growth Inhibition Activity, IC50 (μM), 3T3 Fibroblasts (n = 1): Inactive
physchem
  solubility at 24 h: 55 µM (≈ 18.2 µg/mL)
Candida albicans CaCi-2; Table 6
  Growth Inhibition Activity, IC50 (μM), C. albicans (n = 3) CaCi-2: inactive
Candida albicans CaCi-17; Table 6
  Growth Inhibition Activity, IC50 (μM), C. albicans (n = 3) CaCi-17: inactive

## CCOC(=O)N1C(=S)NC(=O)C12CCCCC2 [compound 56604829]
[1]; Table 7
  Growth Inhibition Activity, IC50 (μM), 3T3 Fibroblasts (n = 1): Inactive
physchem
  solubility at 24 h: > 100 µM
Candida albicans CaCi-2; Table 7
  Growth Inhibition Activity, IC50 (μM), C. albicans (n = 3) CaCi-2: inactive
Candida albicans CaCi-17; Table 7
  Growth Inhibition Activity, IC50 (μM), C. albicans (n = 3) CaCi-17: inactive

## CCOC(=O)N1C(=O)C2(CCCCC2)NC1=S [compound 56604830]
[1]; Table 4
  Growth Inhibition Activity, IC50 (μM), 3T3 Fibroblasts (n = 1): Inactive
physchem; pH 7.4
  PBS Solubility: 61 µM
Candida albicans CaCi-2; Table 4
  Growth Inhibition Activity, IC50 (μM), C. albicans (n = 3) CaCi-2: inactive
Candida albicans CaCi-17; Table 4
  Growth Inhibition Activity, IC50 (μM), C. albicans (n = 3) CaCi-17: inactive

## Cc1ccc(N2C(=S)N(C)C(=O)C23CCCCC3)cc1 [compound 56604835]
[1]; Table 3
  Growth Inhibition Activity, IC50 (μM), 3T3 Fibroblasts (n = 1): Inactive
physchem; pH 7.4
  PBS Solubility: 6.6 µM
Candida albicans CaCi-2; Table 3
  Growth Inhibition Activity, IC50 (μM), C. albicans (n = 3) CaCi-2: inactive
Candida albicans CaCi-17; Table 3
  Growth Inhibition Activity, IC50 (μM), C. albicans (n = 3) CaCi-17: inactive

## CCOC(=O)N1C(=O)C2(CCCCC2)N(c2ccc(CC)cc2)C1=S [compound 56604836]
[1]; [2]
  IC50: 19.5 µM
physchem; [3]
  PBS Solubility: <1.0 µM
Candida albicans CaCi-2; Table 4
  IC50: 1.9 µM
Candida albicans CaCi-17; Table 4
  Growth Inhibition Activity, IC50 (μM), C. albicans (n = 3) CaCi-17: inactive

## CCOC(=O)N1C(=O)C2(CCCCC2)N(c2ccc(C(C)(C)C)cc2)C1=S [compound 56604837]
[1]; [2]
  IC50: 16.5 µM
physchem; [3]
  PBS Solubility: <1.0 µM
Candida albicans CaCi-2; Table 4
  Growth Inhibition Activity, IC50 (μM), C. albicans (n = 3) CaCi-2: inactive
Candida albicans CaCi-17; Table 4
  Growth Inhibition Activity, IC50 (μM), C. albicans (n = 3) CaCi-17: inactive

## O=C1NC(=S)NC12CCCCC2 [compound 56604841]
[1]; Table 7
  Growth Inhibition Activity, IC50 (μM), 3T3 Fibroblasts (n = 1): Inactive
physchem
  solubility at 24 h: > 100 µM
Candida albicans CaCi-2; Table 7
  Growth Inhibition Activity, IC50 (μM), C. albicans (n = 3) CaCi-2: inactive
Candida albicans CaCi-17; Table 7
  Growth Inhibition Activity, IC50 (μM), C. albicans (n = 3) CaCi-17: inactive

## CCOC(=O)N1C(=O)C2(CCCC2)N(c2ccc(C)cc2)C1=S [compound 56604843]
[1]; Table 5
  Growth Inhibition Activity, IC50 (μM), 3T3 Fibroblasts (n = 1): Inactive
physchem; pH 7.4
  PBS Solubility: 9.2 µM
Candida albicans CaCi-2; Table 5
  IC50: 9.8 µM
Candida albicans CaCi-17; Table 5
  Growth Inhibition Activity, IC50 (μM), C. albicans (n = 3) CaCi-17: inactive

## Cc1ccc(N2CC(=O)NC2=S)cc1 [compound 56604844]
[1]; Mus musculus, NIH3T3, read-out: Growth Inhibition Activity, IC50 (μM), 3T3 Fibroblasts (n = 1), Table 7
  IC50: 20.7 µM
physchem
  solubility at 24 h: < 1 µM
Candida albicans CaCi-2; Table 7
  Growth Inhibition Activity, IC50 (μM), C. albicans (n = 3) CaCi-2: inactive
Candida albicans CaCi-17; Table 7
  Growth Inhibition Activity, IC50 (μM), C. albicans (n = 3) CaCi-17: inactive

## Cc1ccc(N2C(=O)N(C)C(=O)C23CCCCC3)cc1 [compound 56604845]
[1]; Table 6
  Growth Inhibition Activity, IC50 (μM), 3T3 Fibroblasts (n = 1): Inactive
physchem
  solubility at 24 h: 100 µM (≈ 27.2 µg/mL)
Candida albicans CaCi-2; Table 6
  Growth Inhibition Activity, IC50 (μM), C. albicans (n = 3) CaCi-2: inactive
Candida albicans CaCi-17; Table 6
  Growth Inhibition Activity, IC50 (μM), C. albicans (n = 3) CaCi-17: inactive

## CCCOC(=O)N1C(=O)C2(CCCCC2)N(c2ccc(C)cc2)C1=S [compound 56604849]
[1]; Table 3
  Growth Inhibition Activity, IC50 (μM), 3T3 Fibroblasts (n = 1): Inactive
physchem; Table 3, PBS pH 7.4 with 1% DMSO, 24 hours, room temperature
  PBS Solubility: <1.0 µM
Candida albicans CaCi-2; Table 3
  IC50: 1.2 µM
Candida albicans CaCi-17; Table 3
  Growth Inhibition Activity, IC50 (μM), C. albicans (n = 3) CaCi-17: inactive

## CCOC(=O)N1C(=S)N(c2ccc(C)cc2)C(=O)C12CCCCC2 [compound 56604852]
[1]; Table 6
  Growth Inhibition Activity, IC50 (μM), 3T3 Fibroblasts (n = 1): Inactive
physchem
  solubility at 24 h: < 1 µM
Candida albicans CaCi-2; Table 6
  Growth Inhibition Activity, IC50 (μM), C. albicans (n = 3) CaCi-2: inactive
Candida albicans CaCi-17; Table 6
  Growth Inhibition Activity, IC50 (μM), C. albicans (n = 3) CaCi-17: inactive

## Cc1ccc(N2C(=O)C3(CCCCC3)NC2=S)cc1 [compound 56604856]
[1]; Table 7
  Growth Inhibition Activity, IC50 (μM), 3T3 Fibroblasts (n = 1): Inactive
physchem
  solubility at 24 h: 5.9 µM (≈ 1.62 µg/mL)
Candida albicans CaCi-2; Table 7
  Growth Inhibition Activity, IC50 (μM), C. albicans (n = 3) CaCi-2: inactive
Candida albicans CaCi-17; Table 7
  Growth Inhibition Activity, IC50 (μM), C. albicans (n = 3) CaCi-17: inactive

## CCOC(=O)N1C(=O)C(C)(C)N(c2ccc(C)cc2)C1=S [compound 56604873]
[1]; Table 5
  Growth Inhibition Activity, IC50 (μM), 3T3 Fibroblasts (n = 1): Inactive
Candida albicans CaCi-2; Table 5
  Growth Inhibition Activity, IC50 (μM), C. albicans (n = 3) CaCi-2: inactive
Candida albicans CaCi-17; Table 5
  Growth Inhibition Activity, IC50 (μM), C. albicans (n = 3) CaCi-17: inactive
